Assay results published in ChEMBL document CHEMBL3885881, “DrugMatrix”.

Species on record: Rattus norvegicus
Assay: DrugMatrix - Regimen: Daily Repeat
Assay type: toxicity, organism-based, Sprague-Dawley
Parameters: regimen Daily Repeat, gender Male, age 6-8 weeks
Conditions: in vivo, po, route oral GAVAGE, vehicle 100 % WATER; for ABSOLUTE BASOPHIL / ABSOLUTE EOSINOPHIL / ABSOLUTE LYMPHOCYTE / ABSOLUTE MONOCYTE / ABSOLUTE SEGMENTED NEUTROPHIL / BASOPHIL / EOSINOPHIL / ERYTHROCYTE COUNT / HEMATOCRIT / HEMOGLOBIN / LEUKOCYTE COUNT / LYMPHOCYTE / MEAN CORPUSCULAR HEMOGLOBIN / MEAN CORPUSCULAR HEMOGLOBIN CONCENTRATION / MEAN CORPUSCULAR VOLUME / MONOCYTE / NEUTROPHIL / NUCLEATED RED BLOOD CELLS / PLATELET COUNT: tissue Blood; for ALANINE AMINOTRANSFERASE / ALBUMIN / ALKALINE PHOSPHATASE / ASPARTATE AMINOTRANSFERASE / BLOOD UREA NITROGEN / CARBON DIOXIDE / CHLORIDE / CHOLESTEROL / CREATINE PHOSPHOKINASE / CREATININE / GLUCOSE / LACTATE DEHYDROGENASE / LIPASE / PHOSPHORUS / POTASSIUM / SODIUM / TOTAL BILIRUBIN / TOTAL PROTEIN / URIC ACID: tissue Plasma
[1] = 50 mg/kg, 120 h, dose level Low, time 5 day
[2] = 1500 mg/kg, 72 h, dose level High, time 3 day
[3] = 1500 mg/kg, 120 h, dose level High, time 5 day

Cc1ncc([N+](=O)[O-])n1CCO [METRONIDAZOLE]
ABSOLUTE BASOPHIL [1]: 0 CELLS/uL | ABSOLUTE EOSINOPHIL [1]: 0 CELLS/uL | ABSOLUTE LYMPHOCYTE [1]: 11707 CELLS/uL | ABSOLUTE MONOCYTE [1]: 0 CELLS/uL | ABSOLUTE SEGMENTED NEUTROPHIL [1]: 459.67 CELLS/uL | BASOPHIL [1]: 0% | EOSINOPHIL [1]: 0% | ERYTHROCYTE COUNT [1]: 6 x10E6/uL | HEMATOCRIT [1]: 36.43% | HEMOGLOBIN [1]: 13.8 G/DL | LEUKOCYTE COUNT [1]: 12.17 x10E3/uL | LYMPHOCYTE [1]: 96.33% | MEAN CORPUSCULAR HEMOGLOBIN [1]: 23.03 pg | MEAN CORPUSCULAR HEMOGLOBIN CONCENTRATION [1]: 37.87 G/DL | MEAN CORPUSCULAR VOLUME [1]: 60.9 fL | MONOCYTE [1]: 0% | NEUTROPHIL [1]: 3.67% | NUCLEATED RED BLOOD CELLS [1]: 0.33 /100WBC | PLATELET COUNT [1]: 986 x10E3/uL | ALANINE AMINOTRANSFERASE [1]: 61 u/L | ALBUMIN [1]: 4.07 G/DL | ALKALINE PHOSPHATASE [1]: 338 u/L | ASPARTATE AMINOTRANSFERASE [1]: 108.33 u/L | BLOOD UREA NITROGEN [1]: 13.67 mg/dL | CARBON DIOXIDE [1]: 30.67 mmol/L | CHLORIDE [1]: 100.33 MEQ/L | CHOLESTEROL [1]: 67 mg/dL | CREATINE PHOSPHOKINASE [1]: 1022 u/L | CREATININE [1]: 0.16 mg/dL | GLUCOSE [1]: 151.33 mg/dL | LACTATE DEHYDROGENASE [1]: 207.67 u/L | LIPASE [1]: 10.67 u/L | PHOSPHORUS [1]: 11.73 mg/dL | POTASSIUM [1]: 5.65 MEQ/L | SODIUM [1]: 145.1 MEQ/L | TOTAL BILIRUBIN [1]: 0.13 mg/dL | TOTAL PROTEIN [1]: 6.17 G/DL | URIC ACID [1]: 1 mg/dL | ABSOLUTE BASOPHIL [2]: 0 CELLS/uL | ABSOLUTE EOSINOPHIL [2]: 49.33 CELLS/uL | ABSOLUTE LYMPHOCYTE [2]: 11170.67 CELLS/uL | ABSOLUTE MONOCYTE [2]: 122.67 CELLS/uL | ABSOLUTE SEGMENTED NEUTROPHIL [2]: 924 CELLS/uL | BASOPHIL [2]: 0% | EOSINOPHIL [2]: 0.33% | ERYTHROCYTE COUNT [2]: 5.75 x10E6/uL | HEMATOCRIT [2]: 36.7% | HEMOGLOBIN [2]: 14.07 G/DL | LEUKOCYTE COUNT [2]: 12.27 x10E3/uL | LYMPHOCYTE [2]: 91.33% | MEAN CORPUSCULAR HEMOGLOBIN [2]: 24.47 pg | MEAN CORPUSCULAR HEMOGLOBIN CONCENTRATION [2]: 38.33 G/DL | MEAN CORPUSCULAR VOLUME [2]: 63.8 fL | MONOCYTE [2]: 1% | NEUTROPHIL [2]: 7.33% | NUCLEATED RED BLOOD CELLS [2]: 0 /100WBC | PLATELET COUNT [2]: 1295.67 x10E3/uL | ALANINE AMINOTRANSFERASE [2]: 71 u/L | ALBUMIN [2]: 4.03 G/DL | ALKALINE PHOSPHATASE [2]: 332 u/L | ASPARTATE AMINOTRANSFERASE [2]: 84.33 u/L | BLOOD UREA NITROGEN [2]: 15 mg/dL | CARBON DIOXIDE [2]: 32.33 mmol/L | CHLORIDE [2]: 102 MEQ/L | CHOLESTEROL [2]: 87 mg/dL | CREATINE PHOSPHOKINASE [2]: 331.67 u/L | CREATININE [2]: 0.23 mg/dL | GLUCOSE [2]: 134.67 mg/dL | LACTATE DEHYDROGENASE [2]: 176.33 u/L | LIPASE [2]: 12 u/L | PHOSPHORUS [2]: 10.83 mg/dL | POTASSIUM [2]: 5.73 MEQ/L | SODIUM [2]: 146.4 MEQ/L | TOTAL BILIRUBIN [2]: 0.1 mg/dL | TOTAL PROTEIN [2]: 5.9 G/DL | URIC ACID [2]: 0.4 mg/dL | ABSOLUTE BASOPHIL [3]: 0 CELLS/uL | ABSOLUTE EOSINOPHIL [3]: 0 CELLS/uL | ABSOLUTE LYMPHOCYTE [3]: 10466.67 CELLS/uL | ABSOLUTE MONOCYTE [3]: 94 CELLS/uL | ABSOLUTE SEGMENTED NEUTROPHIL [3]: 906 CELLS/uL | BASOPHIL [3]: 0% | EOSINOPHIL [3]: 0% | ERYTHROCYTE COUNT [3]: 6.09 x10E6/uL | HEMATOCRIT [3]: 39.27% | HEMOGLOBIN [3]: 15.2 G/DL | LEUKOCYTE COUNT [3]: 11.47 x10E3/uL | LYMPHOCYTE [3]: 91.67% | MEAN CORPUSCULAR HEMOGLOBIN [3]: 25.03 pg | MEAN CORPUSCULAR HEMOGLOBIN CONCENTRATION [3]: 38.73 G/DL | MEAN CORPUSCULAR VOLUME [3]: 64.6 fL | MONOCYTE [3]: 1% | NEUTROPHIL [3]: 7.33% | NUCLEATED RED BLOOD CELLS [3]: 0 /100WBC | PLATELET COUNT [3]: 962 x10E3/uL | ALANINE AMINOTRANSFERASE [3]: 79.33 u/L | ALBUMIN [3]: 4.3 G/DL | ALKALINE PHOSPHATASE [3]: 365 u/L | ASPARTATE AMINOTRANSFERASE [3]: 91.67 u/L | BLOOD UREA NITROGEN [3]: 17.67 mg/dL | CARBON DIOXIDE [3]: 32.33 mmol/L | CHLORIDE [3]: 101.67 MEQ/L | CHOLESTEROL [3]: 66.33 mg/dL | CREATINE PHOSPHOKINASE [3]: 679.67 u/L | CREATININE [3]: 0.18 mg/dL | GLUCOSE [3]: 138.33 mg/dL | LACTATE DEHYDROGENASE [3]: 145.33 u/L | LIPASE [3]: 11 u/L | PHOSPHORUS [3]: 11.17 mg/dL | POTASSIUM [3]: 6.28 MEQ/L | SODIUM [3]: 147.87 MEQ/L | TOTAL BILIRUBIN [3]: 0.13 mg/dL | TOTAL PROTEIN [3]: 6.17 G/DL | URIC ACID [3]: 0.83 mg/dL
